In patent US10160771B2, “Hepatitis C virus inhibitors and uses thereof in preparation of drugs” (priority 2014, dated 2018):

How the values were obtained:
[1] = system: HCV genotype 1a (HCV-1a) replicon cells; assay: HCV genotype 1a replicon luciferase assay (EC50); assay type: cell-based, hepatitis C virus genotype 1a (H77 clone); conditions: Hepatitis C virus, 72 h, 3 days, luciferase (Bright-Glo)
How it was run: (§1)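 Stable subgenomic replicon cells (1a: H77 with K1691R, K2040R, S2204I; 1b: Con1 with E1202G, T1280I, K1846T) carrying luciferase and neo were seeded at 8000 cells/well onto compounds (5-fold, 6-point, top 100, 10 or 1 nM; 0.5% DMSO) for 3 days at 37 °C. Bright-Glo luminescence gave EC50 by nonlinear fit.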

[2] = Cell Titer-fluor cell activity assay in HCV-1b replicon cells (CC50); assay type: cell-based
How it was run: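 Con1 genotype 1b replicon cells (E1202G, T1280I, K1846T adaptive mutations), 8000 cells/well, exposed to 6-point 5-fold dilutions from 100, 10 or 1 nM top concentration in 0.5% DMSO, duplicate wells, 3 days at 37 °C. Viability read by Cell Titer-fluor (Ex 405/Em 515 nm) after 30 min; CC50 from nonlinear fit of inhibition %.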

[3] = system: HCV genotype 1b (HCV-1b) replicon cells; assay: HCV genotype 1b replicon luciferase assay (EC50); assay type: cell-based, hepatitis C virus genotype 1b (Con1 clone); conditions: 3 days, luciferase (Bright-Glo)
How it was run: as §1

SMILES | EC50 [1] | CC50 at 3 days [2] | EC50 ([3]; Hepatitis C virus, 72 h) | EC50 [3]
COC(=O)N[C@H](C(=O)N1CCC[C@H]1c1ncc(-c2ccc(-c3ccc(-c4cnc(C5CC(F)(F)C[C@H]5C(=O)N(NC(=O)OC)C(C)C)[nH]4)cc3)cc2)[nH]1)C(C)C (stereo partly drawn) [AA_138] | 10 to 100 nM | > 100 nM | 1 to 10 nM | –
COC(=O)N[C@H](C(=O)N1CCC[C@H]1c1ncc(-c2ccc(-c3ccc(-c4cnc(C5C6CCC(C6)[C@@H]5C(=O)NCc5cccnc5C(C)C)[nH]4)cc3)cc2)[nH]1)[C@@H](C)OC (stereo partly drawn) [AA_245_B] | 10 to 100 nM | > 1 nM | 0.101 to 1 nM | –
COC(=O)N[C@H](C(=O)N1CCC[C@H]1c1[nH]c(-c2ccc(-c3ccc(-c4cnc([C@@H]5CCCN5C(=O)[C@@H](NC(=O)OC)[C@@H](C)O)[nH]4)cc3)cc2)c2c1CCC2)C(C)C [AG_090] | 1 to 10 nM | > 1 nM | 0.001 to 0.1 nM | –
COC(=O)N[C@H](C(=O)N1CCCC[C@H]1c1ncc(-c2ccc(-c3ccc(-c4[nH]c([C@@H]5CCCN5C(=O)[C@@H](NC(=O)OC)C(C)OC)c5c4COC5)cc3)cc2)[nH]1)C(C)C (stereo partly drawn) [AG_123] | 1 to 10 nM | > 1 nM | 0.001 to 0.1 nM | –
COC(=O)N[C@H](C(=O)N1CCC[C@H]1c1ncc(-c2ccc(-c3ccc(-c4cnc([C@H]5CCCC[C@@H]5C(=O)NCc5cccnc5)[nH]4)cc3)cc2)[nH]1)C(C)C [AA_150_A] | 10 to 100 nM | > 10 nM | 0.101 to 1 nM | –
COC(=O)N[C@H](C(=O)N1CCC[C@H]1c1ncc(-c2ccc(-c3ccc(-c4cnc(C5C6CCC(C6)[C@@H]5C(=O)N(NC(=O)OC)C(C)C)[nH]4)cc3)c(OC)c2)[nH]1)C(C)C (stereo partly drawn) [AA_190_A] | 10 to 100 nM | > 1 nM | 0.101 to 1 nM | –
COC(=O)N[C@H](C(=O)N1CCC[C@H]1c1ncc(-c2ccc(-c3ccc(-c4cnc([C@@H]5C6CCC(C6)[C@H]5C(=O)NCc5ccc(N)cc5)[nH]4)cc3)cc2)[nH]1)C(C)C (stereo partly drawn) [AA_210_B] | 10 to 100 nM | > 1 nM | 0.001 to 0.1 nM | –
COC(=O)N[C@H](C(=O)N1CCC[C@H]1c1ncc(-c2ccc(-c3ccc(-c4cnc([C@@H]5C6CCC(C6)[C@H]5C(=O)NCCc5ccncc5)[nH]4)cc3)cc2)[nH]1)C(C)C (stereo partly drawn) [AA_209_B] | 10 to 100 nM | > 1 nM | 0.101 to 1 nM | –
COC(=O)N[C@H](C(=O)N1CCC[C@H]1c1ncc(-c2ccc(-c3ccc(-c4cnc(C5C6CCC(C6)[C@H]5C(=O)NCc5cccnc5SC)[nH]4)cc3)cc2)[nH]1)[C@@H](C)OC (stereo partly drawn) [AA_260_B] | 10 to 100 nM | > 1 nM | 0.001 to 0.1 nM | –
CCOC(=O)C(NC(=O)[C@H]1C2CCC(C2)[C@@H]1c1ncc(-c2ccc(-c3ccc(-c4cnc([C@@H]5CCCN5C(=O)[C@@H](NC(=O)OC)C(C)C)[nH]4)cc3)cc2)[nH]1)c1cccnc1 (stereo partly drawn) [AA_213] | 1 to 10 nM | > 1 nM | 0.001 to 0.1 nM | –
COC(=O)N[C@H](C(=O)N1CCC[C@H]1c1ccc(-c2ccc(-c3ccc(-c4cnc([C@@H]5CC6(CN5C(=O)[C@H](NC(=O)OC)C(C)C)OCC(C)(C)CO6)[nH]4)cc3)cc2)[nH]1)C(C)C [AG_076] | 10 to 100 nM | > 5 nM | 0.001 to 0.1 nM | –
COC(=O)NC(C(=O)N1CCC[C@H]1c1ncc(-c2ccc(-c3ccc(-c4cnc(C5CCCC[C@@H]5C(=O)N(NC(=O)OC)C(C)C)[nH]4)cc3)cc2)[nH]1)C1CCOC1 (stereo partly drawn) [AA_122] | 10 to 100 nM | > 100 nM | 0.101 to 1 nM | –
COC(=O)N[C@H](C(=O)N1CCC[C@H]1c1ncc(-c2ccc(-c3ccc(-c4cnc(C5C6CCC(C6)[C@H]5C(=O)N(NC(=O)OC)C(C)C)[nH]4)cc3)cc2)[nH]1)C(C)C (stereo partly drawn) [AA_121_B] | 1 to 10 nM | > 10 nM | – | 0.001 to 0.1 nM
COC(=O)N[C@H](C(=O)N1CCC[C@H]1c1ncc(-c2ccc(-c3ccc(-c4cnc(C5C6CCC(C6)[C@H]5C(=O)NC(C)c5cccnc5)[nH]4)cc3)cc2)[nH]1)[C@@H](C)OC (stereo partly drawn) [AA_251_A] | 0.101 to 1 nM | > 1 nM | 0.101 to 1 nM | –
COC(=O)N[C@H](C(=O)N1CCC[C@H]1c1ncc(-c2ccc(-c3ccc(-c4[nH]c([C@@H]5CCCN5C(=O)[C@@H](NC(=O)OC)[C@@H](C)OC)c5c4COC5)cc3)cc2)[nH]1)C(C)C [AG_079_A] | 0.001 to 0.1 nM | > 5 nM | 0.001 to 0.1 nM | –
COC(=O)N[C@H](C(=O)N1CCC[C@H]1c1ncc(-c2ccc(-c3ccc(-c4cnc([C@H]5CCCC[C@@H]5C(=O)N(NC(=O)OC)C(C)C)[nH]4)cc3)cc2)[nH]1)C(C)C [AA_091_B] | 10 to 100 nM | > 10 nM | 0.101 to 1 nM | –
COC(=O)N[C@H](C(=O)N1CCC[C@H]1c1ncc(-c2ccc(-c3ccc(-c4cnc(C5C6CCC(C6)[C@@H]5C(=O)N(NC(=O)OC)C(C)C)[nH]4)cc3)c(C)c2)[nH]1)C(C)C (stereo partly drawn) [AA_167] | 1 to 10 nM | > 1 nM | 0.001 to 0.1 nM | –

SMILES | EC50 [1] | CC50 at 3 days [2] | EC50 ([3]; Hepatitis C virus, 72 h) | EC50 [3]
COC(=O)N[C@H](C(=O)N1CCC[C@H]1c1ncc(-c2ccc(-c3ccc(-c4cnc([C@H]5C6CCC(C6)[C@@H]5C(=O)NNc5nccnc5Cl)[nH]4)cc3)cc2)[nH]1)C(C)C (stereo partly drawn) [AA_244_A] | 10 to 100 nM | > 1 nM | 0.101 to 1 nM | –
COC(=O)N[C@H](C(=O)N1CCC[C@H]1c1cnc(-c2ccc(-c3ccc(-c4ncc(C5C6CCC(C6)[C@@H]5C(=O)N(NC(=O)OC)C(C)C)[nH]4)cc3)cc2C)[nH]1)C(C)C (stereo partly drawn) [AA_169_B] | 10 to 100 nM | > 5 nM | 0.001 to 0.1 nM | –
CC[C@H](C)[C@H](NC(=O)OC)C(=O)N1CCC[C@H]1c1ncc(-c2ccc(-c3ccc(-c4ccc([C@@H]5CCCN5C(=O)[C@@H](NC(=O)OC)C(C)C)[nH]4)cc3)cc2)[nH]1 [AG_107] | 1 to 10 nM | > 1 nM | 0.001 to 0.1 nM | –
COC(=O)N[C@H](C(=O)N1CCC[C@H]1c1ncc(-c2ccc(-c3ccc(-c4cnc(C5C6CCC(C6)[C@@H]5C(=O)NCc5ccco5)[nH]4)cc3)cc2)[nH]1)[C@@H](C)OC (stereo partly drawn) [AA_222_A] | 10 to 100 nM | > 1 nM | 0.001 to 0.1 nM | –
COC(=O)N[C@H](C(=O)N1CCC[C@H]1c1[nH]c(-c2ccc(-c3ccc(-c4cnc(C5C6CCC(C6)[C@@H]5C(=O)N(NC(=O)OC)C(C)C)[nH]4)cc3)cc2)c2c1CCC2)C(C)C (stereo partly drawn) [AA_155] | 10 to 100 nM | > 100 nM | 1 to 10 nM | –
COC(=O)N[C@H](C(=O)N1CCC[C@H]1c1ncc(-c2ccc(-c3ccc(-c4cnc([C@H]5CCCC[C@@H]5C(=O)NCc5ccc(Cl)nc5)[nH]4)cc3)cc2)[nH]1)C(C)C [AA_185] | 10 to 100 nM | > 5 nM | 0.101 to 1 nM | –
COC(=O)N[C@H](C(=O)N1CCCC1c1ncc(-c2ccc3c(c2)oc2cc(-c4ccc([C@@H]5CCCN5C(=O)[C@@H](NC(=O)OC)[C@@H](C)OC)[nH]4)ccc23)[nH]1)[C@@H](C)OC (stereo partly drawn) [AG_103] | 1 to 10 nM | > 1 nM | 0.001 to 0.1 nM | –
COC(=O)N[C@H](C(=O)N1CCC[C@H]1c1ncc(-c2ccc3c(c2)C(=O)c2cc(-c4cnc(C5C6CCC(C6)[C@H]5C(=O)NCc5cccnc5)[nH]4)ccc2-3)[nH]1)C(C)C (stereo partly drawn) [AA_239] | 1 to 10 nM | > 1 nM | 0.001 to 0.1 nM | –
COC(=O)N[C@H](C(=O)N1CCC[C@@H]1c1[nH]c(-c2ccc(-c3ccc(-c4cnc([C@@H]5CCCN5C(=O)[C@@H](NC(=O)OC)C(C)C)[nH]4)cc3)cc2)c2c1CCO2)C(C)C [AG_122_B] | 10 to 100 nM | > 1 nM | 0.101 to 1 nM | –
COC(=O)N[C@H](C(=O)N1CCC[C@H]1c1ncc(-c2ccc(-c3ccc(-c4cnc(C5C6CCC(C6)[C@H]5C(=O)NCc5cccnc5)[nH]4)cc3)cc2)[nH]1)C(C)C (stereo partly drawn) [AA_162_A] | 1 to 10 nM | > 1 nM | 0.001 to 0.1 nM | –
O=C(NCc1cccnc1)[C@H]1C2CCC(C2)C1c1ncc(-c2ccc(-c3ccc(-c4cnc([C@@H]5C6CCC(C6)[C@H]5C(=O)NCc5cccnc5)[nH]4)cc3)cc2)[nH]1 (stereo partly drawn) [AA_180] | 10 to 100 nM | > 10 nM | 1 to 10 nM | –
COC(=O)N[C@H](C(=O)N1CCCC1c1ccc(-c2ccc(-c3ccc(-c4ccc(C5CCCN5C(=O)[C@@H](NC(=O)OC)C(C)C)[nH]4)cc3)cc2)[nH]1)C(C)C (stereo partly drawn) [AG_011] | 10 to 100 nM | > 1 nM | 0.001 to 0.1 nM | –
COC(=O)N[C@H](C(=O)N1CC2(CCCC2)C[C@H]1c1ncc(-c2ccc(-c3ccc(-c4[nH]c([C@@H]5CCCN5C(=O)[C@@H](NC(=O)OC)[C@@H](C)OC)c5c4COC5)cc3)cc2)[nH]1)[C@@H](C)OC [AG_111] | 0.101 to 1 nM | > 1 nM | 0.001 to 0.1 nM | –
COC(=O)N[C@H](C(=O)N1CCC[C@H]1c1ncc(-c2ccc(-c3ccc(-c4cnc([C@@H]5C6CCC(C6)[C@H]5C(=O)NC(c5cccnc5)C(C)C)[nH]4)cc3)cc2)[nH]1)C(C)C (stereo partly drawn) [AA_233_B] | 1 to 10 nM | > 1 nM | 0.001 to 0.1 nM | –
COC(=O)N[C@H](C(=O)N1CCC[C@H]1c1ncc(-c2ccc(-c3ccc(-c4cnc(C5C6CCC(C6)[C@@H]5C(=O)NCc5ccc(C(C)C)nc5)[nH]4)cc3)cc2)[nH]1)[C@@H](C)OC (stereo partly drawn) [AA_265_A] | 10 to 100 nM | > 1 nM | 0.101 to 1 nM | –
COC(=O)N[C@H](C(=O)N1CCC[C@H]1c1ncc(-c2ccc(-c3ccc(-c4cnc([C@@H]5C6CCC(C6)[C@H]5C(=O)NCc5cccc(N)c5)[nH]4)cc3)cc2)[nH]1)C(C)C (stereo partly drawn) [AA_199_B] | 10 to 100 nM | > 1 nM | 0.001 to 0.1 nM | –
